Assays:
[1] = target: Lck (Homo sapiens (Human), UniProt P06239); assay: KINOMEscan enzyme binding assay (Lck); details: KINOMEscan technology; read-out: Dissociation Constant, Lck
Experimental: (§1) Kinase enzyme binding activities of compounds disclosed herein may be determined using a proprietary assay which measures active site-directed competition binding to an immobilized ligand (Fabian, M. A. et al., Nature Biotechnol., 2005, 23:329-336). These assays may be conducted by DiscoverX (formerly Ambit; San Diego, Calif.). The percentage inhibition produced by incubation with a test compound may be calculated relative to the non-inhibited control.

[2] = target: Syk (Homo sapiens (Human), UniProt P43405); assay: KINOMEscan enzyme binding assay (Syk); details: KINOMEscan technology; read-out: Dissociation Constant, Syk
Experimental: as §1

[3] = test system: PBMCs; assay: LPS-induced IL-8 release in PBMC cells (assay b); type: cell-based, human; details: Homo sapiens, PBMC; LPS-stimulated PBMCs; read-out: IC50 Values for Inhibition of Cytokine Release, PBMCs IL-8
Outline: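 Human PBMCs from healthy donors, isolated by density gradient, were pretreated with compound for 2 h and then stimulated with 1 ng/mL LPS (E. coli 0111:B4) for 24 h at 37° C, 5% CO2. Supernatant IL-8 and TNFα were measured by sandwich ELISA, and IC50 was taken from the dose-response curve.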

[4] = test system: HT29 cells; assay: IL-1β-induced IL-8 release in HT29 cells (assay d); type: cell-based; details: Homo sapiens, HT-29; IL-1β-stimulated HT29 cells; read-out: IC50 Values for Inhibition of Cytokine Release, HT29 cells IL-8
Experimental: HT29 cells, a human colon adenocarcinoma cell line, are plated in a 96 well plate (24 hrs) and pre-treated with compounds at the desired concentration for 2 hours before addition of 5 ng/mL of IL-1β (Abcam) for 24 hours. Supernatants are harvested for IL-8 quantification by Sandwich ELISA (Duo-set, R&D System). The IC50 is determined from the dose response curve.

[5] = test system: PBMCs; assay: Cell mitosis assay in PBMCs (assay g); type: cell-based; details: Homo sapiens, PBMC, test compound 5 μg/mL
Outline: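 Human PBMCs from healthy donors, stimulated with 2% PHA for 48 hr, then exposed to test compounds for 20 hr, with demecolcine (0.1 μg/mL) added 2 hr before harvest. Cells fixed/permeabilised, stained for phospho-histone 3 and propidium iodide, and read by flow cytometry gated on lymphocytes. % mitosis inhibition vs 0.5% DMSO vehicle.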

[6] = test system: TNBS-induced colitis; assay: TNBS-induced colitis in mice (in vivo assay iv); design: species or system BDF1 mice; TNBS Ulcer grade / TNBS LP inflammation: scale not given here; details: SMEDDS vehicle; for Activity in in vivo model of colonic inflammation (histopathology analysis) / Inflammatory cell infiltrate in the reticular and laminar propria zone: TNBS colitis over 2 days; for Ulcer grade and epithelial repair compared to the vehicle control: dosed orally at 5 mg/kg, 2 days; for TNBS LP inflammation / TNBS Ulcer grade: mice, 5 mg/kg orally, conducted over 2 days, histopathology
Experimental: Non-fasted, 10-12 week old, male BDF1 mice are dosed by oral gavage twice daily with either vehicle (5 mL/kg), reference item (Budesonide 2.5 mg/kg) or test compound (1 or 5 mg/kg) one day before (Day −1) stimulation of the inflammatory response by treatment with 2,4,6-trinitrobenzenesulphonic acid (TNBS) (15 mg/mL in 50% ethanol/50% saline). On Day 0 of the study TNBS (200 μL) is administered intra-colonically via a plastic catheter with BID dosing of the vehicle, reference or test compound continuing for 2 or 4 days. During the study animals are weighed every day and stool observations are made and recorded as a score, based on stool consistency. At the time of sacrifice on Day 2 (or Day 4) the large intestine is removed and the length and weight recorded. Sections of the colon are taken for histopathology scoring to determine disease severity.

Chain of Lck (P06239 whole entry): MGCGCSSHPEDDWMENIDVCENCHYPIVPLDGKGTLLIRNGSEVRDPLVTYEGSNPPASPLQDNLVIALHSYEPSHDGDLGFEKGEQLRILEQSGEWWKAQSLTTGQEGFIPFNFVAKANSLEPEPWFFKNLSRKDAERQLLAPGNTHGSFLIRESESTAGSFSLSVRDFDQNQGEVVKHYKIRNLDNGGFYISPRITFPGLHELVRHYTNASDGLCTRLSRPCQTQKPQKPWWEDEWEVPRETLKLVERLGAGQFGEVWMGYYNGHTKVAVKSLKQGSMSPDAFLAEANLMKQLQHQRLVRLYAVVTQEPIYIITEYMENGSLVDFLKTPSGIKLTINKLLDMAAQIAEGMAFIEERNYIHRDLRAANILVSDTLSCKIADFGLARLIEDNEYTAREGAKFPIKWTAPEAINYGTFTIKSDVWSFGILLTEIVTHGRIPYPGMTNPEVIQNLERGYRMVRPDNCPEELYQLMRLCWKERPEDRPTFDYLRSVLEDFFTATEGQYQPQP

## COc1c(NC(=O)Nc2ccc(Oc3ccnc(Nc4ccccc4)c3)c3ccccc23)cc(C(C)(C)C)cc1[S+](C)[O-] (racemic) [Example 12, 1-(5-(tert-Butyl)-2-methoxy-3-(methylsulfinyl)phenyl)-3-(4-((2-(phenylamino)pyridin-4-yl)oxy)naphthalen-1-yl)urea]
[1]
  Kd: 3.6 nM
[2]
  Kd: 18 nM
[3]
  IC50: 3.6 nM
[4]
  IC50: 8.6 nM
[5]
  inhibition at 5 µg/mL: 23.2%

## COCCOCCOCCOc1cc(Nc2cc(Oc3ccc(NC(=O)Nc4cc(C(C)(C)C)cc(S(C)(=O)=O)c4OC)c4ccccc34)ccn2)cc(OC)c1 [Example 9, 1-(5-(tert-Butyl)-2-methoxy-3-(methylsulfonyl)phenyl)-3-(4-((2-((3-methoxy-5-(2-(2-(2-methoxyethoxy)ethoxy)ethoxy)phenyl)amino)pyridin-4-yl)oxy)naphthalen-1-yl)urea]
[1]
  Kd: 8.6 nM
[2]
  Kd: 29 nM
[3]
  IC50: 3.5 nM
[4]
  IC50: 4.3 nM
[5]
  inhibition at 5 µg/mL: 50.8%
[6]
  Activity in in vivo model of colonic inflammation (histopathology analysis): significant activity
  Inflammatory cell infiltrate in the reticular and laminar propria zone: marked reductions
  Ulcer grade and epithelial repair compared to the vehicle control: marked improvements
  TNBS LP inflammation: 2.9 ± 0.3
  TNBS Ulcer grade: 3.6 ± 0.3

## COc1c(CC(N)=O)cc(C(C)(C)C)cc1NC(=O)Nc1ccc(Oc2ccnc(Nc3ccccc3)c2)c2ccccc12 [Example 13, 2-(5-(tert-Butyl)-2-methoxy-3-(3-(4-((2-(phenylamino)pyridin-4-yl)oxy)naphthalen-1-yl)ureido)phenyl)acetamide]
[3]
  IC50: 6.4 nM
[4]
  IC50: 18.2 nM
[5]
  inhibition at 5 µg/mL: 13.9%
[6]
  Activity in in vivo model of colonic inflammation (histopathology analysis): significant activity
  Inflammatory cell infiltrate in the reticular and laminar propria zone: marked reductions
  Ulcer grade and epithelial repair compared to the vehicle control: marked improvements
  TNBS LP inflammation: 2.8 ± 0.5
  TNBS Ulcer grade: 2.6 ± 0.7

## COc1cc(Nc2cc(Oc3ccc(NC(=O)Nc4cc(C(C)(C)C)cc(CC(N)=O)c4OC)c4ccccc34)ccn2)cc(OC)c1 [Example 30, 2-(5-(tert-Butyl)-3-(3-(4-((2-((3,5-dimethoxyphenyl)amino)pyridin-4-yl)oxy)naphthalen-1-yl)ureido)-2-methoxyphenyl)acetamide]
[3]
  IC50: 1.7 nM
[5]
  inhibition at 5 µg/mL: 48.7%
[6]
  Activity in in vivo model of colonic inflammation (histopathology analysis): significant activity
  Inflammatory cell infiltrate in the reticular and laminar propria zone: marked reductions
  Ulcer grade and epithelial repair compared to the vehicle control: marked improvements
  TNBS LP inflammation: 2.5 ± 0.4
  TNBS Ulcer grade: 3.1 ± 0.4

## COc1cc(Nc2cc(Oc3ccc(NC(=O)Nc4cc(C(C)(C)C)cc(P(C)(C)=O)c4OC)c4ccccc34)ccn2)cc(C(N)=O)c1 [Example 37, 3-((4-((4-(3-(5-(tert-butyl)-3-(dimethylphosphoryl)-2-methoxyphenyl)ureido)-naphthalen-1-yl)oxy)pyridin-2-yl)amino)-5-methoxybenzamide]
[1]
  Kd: 1.2 nM
[2]
  Kd: 5.1 nM
[3]
  IC50: 1.7 nM
[5]
  inhibition at 5 µg/mL: 43.2%

— patent US9890185B2, “Urea derivatives useful as kinase inhibitors” (Respivert Limited, priority 2013, dated 2018)
